Results reported in patent US9579335B2, “Treatment of cystic diseases” (Indiana University Research and Technology Corporation, priority 2010, dated 2017).

Test system: mpkCCDcl4 cells
Assay: Ussing-chamber short-circuit current (SCC) measurement of net transepithelial ion transport
Type: cell-based, mouse
Settings: for effect of pretreatment on cyst fluid stimulated ion transport (SCC): inhibitor/effector added before 10% cyst fluid on serosal side; for ion transport (SCC) response to addition of the substance itself: added to the bathing media of monolayers, no prior stimulus
Method: mpkCCDcl4 cell culture. mpkCCDcl4 cells were developed as a line expressing the characteristics of the principal cell type of the distal nephron and cortical collecting duct. mpkCCDcl4 cells were grown in a humidified chamber at 37° C. and 5% CO2. The cell line was maintained in plastic culture flasks for propagation. For electrophysiological measurements, the cells were seeded onto Transwell filters at ¼ confluent density. The media was replaced thrice weekly and consisted of Dulbecco's modified Eagle's medium (DMEM): Ham's F12 basal media supplemented with 2% fetal bovine serum, 1 mM Glutamax, 25 U/mL penicillin, […] streptomycin, 12 mg/L ciprofloxacin, 5 mg/L transferrin, 20 μg/L sodium selenite, and 10^−7 M triiodothyronine.
Electrophysiology. Ussing-style electrophysiological measurements were used to measure net transepithelial transport as well as to monitor the transepithelial resistance as described previously. Briefly, transwell permeable membranes containing confluent (>10 days post seeding) monolayers of mpkCCDcl4 cells were excised from the plastic supports, mounted in modified Ussing chambers, and connected to a DVC-1000 Voltage/Current Clamp (World Precision Instruments) with voltage and current electrodes on either side of the membrane. The cells were bathed in serum-free medium maintained at 37° C. via water-jacketed buffer chambers on either side of the filter. Medium was circulated and kept at constant pH using a 5% CO2/95% O2 gas lift. The spontaneous transepithelial potential difference was measured and then clamped to zero. The resulting short-circuit current (SCC) is a measure of net transepithelial ion transport. During the entire experiment, non-zero voltage pulses are induced every 200 seconds and the current displacement during the pulse is used to calculate the transepithelial resistance via Ohm's law. Cultures with resistances lower than 1000 Ω·cm^2 measured within the first 10 minutes of placement in the chambers were discarded. The basal level of transport was monitored for 20-40 minutes before the start of an experiment. The time of addition of the stimulatory effector is defined as zero time.
Unless otherwise stated, each experiment was repeated 3-4 times. Because of variability in the magnitude of the stimulatory responses to cyst fluid from various patients, only one representative experiment is depicted.
The functional effects of cyst fluid were measured as changes in net transepithelial ion transport across high resistance epithelia formed by the mpkCCDcl4 cell line. […] For electrophysiological measurements, confluent cell monolayers grown on permeable supports are mounted in Ussing chambers with access to both the basolateral and apical surfaces. The spontaneous transepithelial potential difference is measured and clamped to zero. In high resistance epithelia, the resulting short-circuit current (SCC) is a measure of net transepithelial transport. By convention, a positive change is defined as anion moving in a secretory direction (serosal to luminal bathing media) or a cation moving in an absorptive direction (luminal to serosal bathing media). Likewise, a decrease in SCC can be defined as anions or cations moving in the opposite direction from that described above. The nature and direction of the ion flux is characterized by effectors and inhibitors.

## [Ba+2] [Ba^2+]
Pretreatment on the apical face
  effect on stimulated Cl- secretion: without effect
Pretreatment on the serosal side
  inhibition of stimulated Cl- secretion: about 50%

## CCCCCCCCCCCCOP(=O)(O)O [DDP, dodecylphosphate]
  effect of pretreatment on cyst fluid stimulated ion transport (SCC): no effect

## CCCCCCCC(=O)OC[C@H](COP(=O)(O)OP(=O)(O)O)OC(=O)CCCCCCC [DGPP, diacylglycerol pyrophosphate]
  concentrations with adverse effect on integrity of the cellular monolayer (decrease in transepithelial resistance): above 20 μM
  effect of pretreatment on cyst fluid stimulated ion transport (SCC): substantially inhibited
Pretreatment with 20 μM DGPP, five experiments
  average inhibition of the Cl- secretory peak stimulated in response to 10% cyst fluid: 72.8+4.49%

## O=C(CNc1ccc2ccccc2c1)N/N=C/c1cc(Br)c(O)c(Br)c1O [GlyH-101]
  ion transport (SCC) response to addition of the substance itself: causes a stimulatory response when added
  effect of pretreatment on cyst fluid stimulated ion transport (SCC): Neither inhibitor alone completely blocked the response

## COc1ccc2c(c1)c(CC(=O)O)c(C)n2C(=O)c1ccc(Cl)cc1 [Indomethacin, indomethacin]
  effect of pretreatment on cyst fluid stimulated ion transport (SCC): did not alter

## CCCCCCCCCCCCC/C=C/[C@@H](O)[C@@H](N)COP(=O)(O)O [S-1-P, sphingosine-1-phosphate]
  ion transport (SCC) response to addition of the substance itself: consistently minimal compared to those elicited by LPA

## N=C(N)NC(=O)c1nc(Cl)c(N)nc1N [amiloride]
  ion transport (SCC) response to addition of the substance itself: immediate decrease in the basal current
Amiloride 10^-5 M apical, 10 minutes before forskolin
  effect of pre-treatment on subsequent response to forskolin: completely eliminated a subsequent response to forskolin
Amiloride 10^-5 M apical, 30 minutes after forskolin
  effect on forskolin-stimulated ion transport, added after forskolin: completed inhibited
Amiloride added to apical bathing media
  effect on ion transport remaining 30 minutes after cyst fluid addition: decreased the remaining ion transport to zero

## O=C(OC[C@H]1O[C@@H](OC(=O)c2cc(O)c(O)c(OC(=O)c3cc(O)c(O)c(O)c3)c2)[C@H](OC(=O)c2cc(O)c(O)c(OC(=O)c3cc(O)c(O)c(O)c3)c2)[C@@H](OC(=O)c2cc(O)c(O)c(OC(=O)c3cc(O)c(O)c(O)c3)c2)[C@@H]1OC(=O)c1cc(O)c(O)c(OC(=O)c2cc(O)c(O)c(O)c2)c1)c1cc(O)c(O)c(OC(=O)c2cc(O)c(O)c(O)c2)c1 [tannic acid]
  effect of pretreatment on cyst fluid stimulated ion transport (SCC): Neither inhibitor alone completely blocked the response

## N-palmitoyl-L-serine phosphoric acid [L-NASPA]
  ion transport (SCC) response to addition of the substance itself: immediate response that mimics the response to LPA or 10% cyst fluid
  effect of pretreatment on cyst fluid stimulated ion transport (SCC): appears to inhibit a subsequent response to cyst fluid

## lysophosphatic acid [LPA]
  ion transport (SCC) response to addition of the substance itself: identical to the response to renal cyst fluid
